Experimental data reported in patent US12492182B2, “Hydroxytriazine compounds and pharmaceutical use thereof” (Japan Tobacco Inc., priority 2015, dated 2025).
pIC50: −log10 of the molar value.

Experiments:
human mPGES-1 = biological target: T1, human mPGES-1 (Homo sapiens, UniProt O14684); experiment: Evaluation of human mPGES-1 enzyme inhibitory activity (HTRF measurement of PGE2); type: biochemical; settings: IC50 value; microsome fraction of CHO-S cells expressing human mPGES-1, PGH2 substrate, PGE2 by HTRF; read-out: humans mPGES-1 enzyme inhibitory activity
T1 construct: made in house; host or cells: Chinese hamster ovary-derived cells (FreeStyle CHO-S), transient transfection of pcDNA3.1(+)/human mPGES-1; microsome fraction
T1 sequence (O14684 1-152): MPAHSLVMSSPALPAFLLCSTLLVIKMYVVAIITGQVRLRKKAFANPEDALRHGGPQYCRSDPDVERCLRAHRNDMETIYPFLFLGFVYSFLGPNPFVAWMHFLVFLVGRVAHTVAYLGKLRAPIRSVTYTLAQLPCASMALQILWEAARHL
Outline: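 Enzyme source was a microsome fraction from CHO-S cells transfected with human mPGES-1, diluted to 5 μg/mL protein in reduced GSH (12.5 mmol/L KPB), preincubated with compound for 10 min at room temperature with 2% final DMSO. Reaction started with PGH2 and run 45 seconds at room temperature. PGE2 measured by HTRF.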

A549 cell = experiment: Evaluation of PGE2 production inhibitory action using A549 cell (IL-1β stimulated); type: cell-based, human; settings: Homo sapiens, A549, A549 cell, recombinant human IL-1β stimulation; read-out: cell PGE2 production inhibitory activity (IC50 value)
Outline: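 A549 cells (human lung cancer) in F-12K with 2% FBS were preincubated with test article for 30 min, then stimulated with IL-1β (1 ng/mL final) for 18 hr at 37 °C; 0.5% DMSO final. Supernatant PGE2 was measured by HTRF against a standard curve; inhibition is relative to vehicle and unstimulated blank wells.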

[1] = Measurement of solubility in Britton-Robinson buffer solution (pH 8.5) containing 0.5 W/V % polysorbate 80; type: physicochemical; settings: Britton-Robinson buffer pH 8.5 containing 0.5 W/V % polysorbate 80, 20° C., 18 hr
Method: Experimental Example 5: Measurement of Solubility
(2) Britton-Robinson Buffer Solution (pH 8.5) Containing 0.5 W/V % Polysorbate 80
The test article was weighted in glass microtube, and dispersed in Britton-Robinson buffer solution (pH 8.5, 1.5 mL) containing 0.5 W/V % polysorbate 80 to prepare a suspension. The suspension was shaked at 20° C. for 18 hr, and filtered through a membrane filter (0.45 μm), and the filtrate was used as a sample.
(3) Preparation of Standard Solution and Sample Solution, and Measurement of Solubility
Sample solution was prepared by appropriately diluting sample with a mixture of water/acetonitrile (1:1). Standard solution was prepared by precisely weighting the test article, and then diluting the test article with a mixture of water/acetonitrile (1:1). The standard solution and sample solution were analyzed by liquid chromatography, and the test article content of the sample solution was calculated according to external standard method, based on which the solubility was determined.

| pIC50 (human mPGES-1) | pIC50 (A549 cell) | 0.5% polysorbate 80 solubility (%) at pH 8.5 [1] [%] | Structure (SMILES) |
| --- | --- | --- | --- |
| 8.59 | 8.68 | 0.032 | CC(C)(C)c1cccc(-c2nc(O)nc(-c3cc(CNC(=O)C4(C(F)(F)F)CCCCC4)ccc3Cl)n2)c1 [Example 107, 1-trifluoromethylcyclohexanecarboxylic acid 3-[4-(3-tert-butylphenyl)-6-hydroxy-1,3,5-triazin-2-yl]-4-chlorobenzylamide] |
| 9.15 | 8.42 | 0.136 | CO[C@](C)(C(=O)NCc1ccc(Cl)c(-c2nc(O)nc(-c3cccc(C(C)(C)C)c3)n2)c1)C(F)(F)F [Example 66, (R)—N-{3-[4-(3-tert-butylphenyl)-6-hydroxy-1,3,5-triazin-2-yl]-4-chlorobenzyl}-3,3,3-trifluoro-2-methoxy-2-methylpropionamide] |
| 8.68 | 8.30 | 0.071 | CCCCCCOc1ccc(-c2nc(O)nc(-c3cc(CNC(=O)C(C)(C)OC)ccc3Cl)n2)cn1 [Example 81, N-{4-chloro-3-[4-(6-hexyloxypyridin-3-yl)-6-hydroxy-1,3,5-triazin-2-yl]benzyl}-2-methoxy-2-methylpropionamide] |
